Test results from article PMC9318782, “Assessments of Ceanothanes Triterpenes as Cholinesterase Inhibitors: An Investigation of Potential Agents with Novel Inspiration for Drug Treatment of Neurodegenerative Diseases” (Metabolites, 2022).
Read-outs that look alike come from different tables or passages of the source.

Tests used:
[1] = target: T1, AChE from Electrophorus electricus (Electrophorus electricus, UniProt O42275); test: biochemical; conditions: AChE from Electrophorus electricus (commercial enzyme); Ellman; Table 1; read-out: IC50 ± SEM, AChE
T1 construct: purchased Sigma-Aldrich
Description: (§1) The Ellman assay was used to test acetylcholinesterase (AChE from Electrophorus electricus, and human blood) and butyrylcholinesterase (BChE from equine serum) inhibition activity. Human blood was drawn using sterilized syringes and stored in BD Vacutainer tubes with heparin as an anticoagulant at 4 °C for 1 h. To lyse the erythrocytes, 1 mL of a 1:50 dilution of the blood sample was prepared with the non-ionic detergent triton X-100. A mixture of the DTNB (125 μL), enzyme solution (25 μL), and compound solution (25 μL) was prepared and incubated at room temperature for 20 min. All the assays were under 0.1 M KH2PO4/K2HPO4 buffer, pH 8.0. The substrate was added to start the enzymatic reaction. […] All measurements were performed fivefold as triplicate. The compounds were assayed in a dilution interval of 15 to 500 μg/mL.

AChE from human blood = target: T2, AChE from human blood (Homo sapiens, UniProt P22303); test: biochemical; conditions: AChE obtained from human blood samples; Ellman; read-out: IC50 ± SEM, AChE hb
T2 construct: the enzyme extracted from human blood; from tissue; host or cells: human whole blood, erythrocytes lysed with Triton X-100
Description: as §1, with “μg/mL. […] The percentage of inhibition was determined as follows: I(%)=(1−Aprobe/Ablank)100” for “μg/mL.”

[2] = target: T3, butyrylcholinesterase (BChE from equine serum) (Equus caballus, UniProt P81908); test: Ellman assay, BChE inhibition; format: biochemical
T3 construct: butyrylcholinesterase (from equine serum) were purchased from Sigma-Aldrich; purchased Sigma-Aldrich; host or cells: equine serum
Description: as §1, with “μg/mL. […] The percentage of inhibition was determined as follows: I(%)=(1−Aprobe/Ablank)100” for “μg/mL.”

AChE [3] = target: T4, AChE (Electrophorus electricus, UniProt O42275); test: biochemical; format: biochemical; conditions: for Inhibition Type: Lineweaver-Burk and Dixon plots
Description: To investigate the inhibition mechanism of the tested compounds on AChE, a kinetic analysis was performed. The experiments were carried out using a combination of four substrate concentrations and three inhibitor concentrations with the view to obtain a double reciprocal plot (Lineweaver–Burk), in which each point is the mean of three different experiments. A parallel control with no inhibitor in the mixture allowed adjusting activities to be measured at various times.

PAS of EeAChE = target: T5, PAS of EeAChE (Electrophorus electricus, UniProt O42275); test: Propidium iodide displacement assay; format: binding; conditions: 0.25 h, read-out: % Displacement of Propidium Iodide
T5 construct: purchased Sigma-Aldrich
Description: […] Propidium iodide is known for ability to specifically binding to the PAS region of AChE.
The percentage inhibition was calculated by the following expression: 100-(IFi/IF0 × 100), where IF1 and IF0 correspond to fluorescence intensities with and without the test compound, respectively. Each assay was carried out in triplicate.

AChE [4] = target: T4, AChE; conditions: cited from earlier work; for IC50: read-out: IC50, AChE inhibitory activity
[5] = alkaloids from Esenbeckia leiocarpa ref 40

T3 sequence (P81908 whole entry): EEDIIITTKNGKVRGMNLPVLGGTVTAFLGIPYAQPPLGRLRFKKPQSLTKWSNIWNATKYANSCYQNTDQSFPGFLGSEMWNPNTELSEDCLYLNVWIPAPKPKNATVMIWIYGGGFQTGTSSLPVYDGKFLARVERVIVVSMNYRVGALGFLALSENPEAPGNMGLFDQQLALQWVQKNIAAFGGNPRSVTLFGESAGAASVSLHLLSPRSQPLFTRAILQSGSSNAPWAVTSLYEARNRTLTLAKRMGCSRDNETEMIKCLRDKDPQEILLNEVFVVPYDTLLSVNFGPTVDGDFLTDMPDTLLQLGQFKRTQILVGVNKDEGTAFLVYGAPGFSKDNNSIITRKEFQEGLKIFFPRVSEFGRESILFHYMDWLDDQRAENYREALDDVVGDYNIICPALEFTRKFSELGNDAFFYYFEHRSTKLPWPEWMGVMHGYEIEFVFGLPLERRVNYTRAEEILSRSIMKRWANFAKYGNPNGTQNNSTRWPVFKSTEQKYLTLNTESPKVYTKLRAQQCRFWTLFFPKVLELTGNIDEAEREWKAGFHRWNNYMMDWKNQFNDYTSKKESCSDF
T2 sequence (P22303 32-617 isoform P22303-2 limits assumed): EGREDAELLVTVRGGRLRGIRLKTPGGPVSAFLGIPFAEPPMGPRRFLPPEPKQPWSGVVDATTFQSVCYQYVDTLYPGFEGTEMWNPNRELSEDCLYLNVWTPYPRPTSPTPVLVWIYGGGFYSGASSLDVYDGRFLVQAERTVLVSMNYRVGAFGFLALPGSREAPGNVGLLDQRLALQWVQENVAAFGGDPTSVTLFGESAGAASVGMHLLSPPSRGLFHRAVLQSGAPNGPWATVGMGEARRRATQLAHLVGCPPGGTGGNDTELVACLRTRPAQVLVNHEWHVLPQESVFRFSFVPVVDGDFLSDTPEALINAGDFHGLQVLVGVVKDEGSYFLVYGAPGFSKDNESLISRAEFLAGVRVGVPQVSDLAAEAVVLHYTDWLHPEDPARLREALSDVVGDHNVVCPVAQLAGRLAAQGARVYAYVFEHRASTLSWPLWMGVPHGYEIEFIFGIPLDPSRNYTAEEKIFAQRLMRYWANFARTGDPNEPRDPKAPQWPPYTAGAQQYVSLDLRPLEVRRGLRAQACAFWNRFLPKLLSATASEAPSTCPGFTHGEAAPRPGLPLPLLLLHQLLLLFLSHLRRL
T5 sequence (O42275 24-633): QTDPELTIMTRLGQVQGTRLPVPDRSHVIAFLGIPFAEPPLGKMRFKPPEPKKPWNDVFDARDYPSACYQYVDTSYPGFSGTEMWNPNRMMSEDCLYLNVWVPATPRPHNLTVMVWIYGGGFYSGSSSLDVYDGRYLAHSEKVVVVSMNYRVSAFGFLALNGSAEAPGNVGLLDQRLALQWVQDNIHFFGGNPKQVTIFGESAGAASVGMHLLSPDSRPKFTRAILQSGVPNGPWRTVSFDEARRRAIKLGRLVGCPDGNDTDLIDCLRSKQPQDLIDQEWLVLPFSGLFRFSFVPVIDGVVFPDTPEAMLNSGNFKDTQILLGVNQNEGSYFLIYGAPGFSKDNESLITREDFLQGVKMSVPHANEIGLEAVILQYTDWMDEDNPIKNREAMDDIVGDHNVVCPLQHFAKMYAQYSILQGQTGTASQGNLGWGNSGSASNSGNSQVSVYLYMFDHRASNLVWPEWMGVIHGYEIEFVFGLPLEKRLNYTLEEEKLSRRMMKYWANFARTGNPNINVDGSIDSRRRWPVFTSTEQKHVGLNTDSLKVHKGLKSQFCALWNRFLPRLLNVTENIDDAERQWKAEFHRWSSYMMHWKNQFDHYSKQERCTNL
T4 sequence (O42275 24-633): as above
T1 sequence (O42275 24-633): as above

SMILES: C=C(C)[C@@H]1CC[C@]2(C(=O)O)CC[C@]3(C)[C@H](CC[C@@H]4[C@@]5(C)[C@H](CO)[C@@H](O)C(C)(C)[C@@H]5CC[C@]43C)[C@@H]12 [Compound 5, Ceanothanolic acid]
- IC50 [1]: 155 ± 0.1 nM
- IC50 (AChE from human blood): 181 ± 0.7 nM
- IC50 [2]: > 500000 nM
- Ki (AChE [3]): 56 nM
- Inhibition Type (AChE [3]): mixed competitive mode inhibition
- inhibition at 0.75 µM (PAS of EeAChE): 14.5 ± 0.3%
- inhibition at 1.5 µM (PAS of EeAChE; 1.5 µM compound, EeAChE): 19.3 ± 1.5%

SMILES: O=c1c(O)c(-c2ccccc2)oc2cc(O)cc(O)c12 [galangin]
- IC50 (AChE [4]): 120000 nM

SMILES: C=C(C)[C@@H]1CC[C@]2(C(=O)O)CC[C@]3(C)[C@H](CC[C@@H]4[C@@]5(C)[C@@H](C(=O)O)[C@H](O)C(C)(C)[C@@H]5CC[C@]43C)[C@@H]12 [Compound 3, Ceanothic acid]
- IC50 [1]: 125 ± 0.4 nM
- IC50 (AChE from human blood): 146 ± 3 nM
- IC50 [2]: > 500000 nM
- Ki (AChE [3]): 55 nM
- Inhibition Type (AChE [3]): partially competitive
- Inhibition Type (AChE [3]; listed as compound 3): competitive and reversible
- inhibition at 0.75 µM (PAS of EeAChE): 34.2 ± 0.6%
- inhibition at 1.5 µM (PAS of EeAChE; 1.5 µM compound, EeAChE): 45.6 ± 1.1%

SMILES: C[C@H]1[C@H](C)CC[C@]2(C(=O)O)CC[C@]3(C)C(=CC[C@@H]4[C@@]5(C)CC[C@H](O)C(C)(C)[C@@H]5CC[C@]43C)[C@H]12 [ursolic acid]
- mode of AChE inhibition (AChE [4]): competitive/non-competitive

SMILES: C=C(C)[C@@H]1CC[C@]2(C(=O)O)CC[C@]3(C)C(CCC4[C@@]5(C)C(C(=O)O)C(OC(C)=O)C(C)(C)C5CC[C@]43C)C12 (stereo partly shown) [Compound 7, 3-O-acetyl-ceanothic acid]
- IC50 [1]: 179 ± 0.1 nM
- IC50 (AChE from human blood): 207 ± 6 nM
- IC50 [2]: > 500000 nM
- Ki (AChE [3]): 50 nM
- Inhibition Type (AChE [3]): partially competitive
- inhibition at 1.5 µM (PAS of EeAChE): 32.1 ± 1.3%

SMILES: C=C(C)[C@@H]1CC[C@]2(C(=O)O)CC[C@]3(C(=O)O)[C@H](CC[C@@H]4[C@@]5(C)C=CC(C)(C)[C@@H]5CC[C@]43C)[C@@H]12 [Compound 4, Ceanothenic acid]
- IC50 [1]: 188 ± 0.5 nM
- IC50 (AChE from human blood): 219 ± 4 nM
- IC50 [2]: > 500000 nM
- Ki (AChE [3]): 22 nM
- Inhibition Type (AChE [3]): mixed competitive mode inhibition
- inhibition at 0.75 µM (PAS of EeAChE): 20.1 ± 1%
- inhibition at 1.5 µM (PAS of EeAChE; 1.5 µM compound, EeAChE): 26.7 ± 1.3%

SMILES: C=C(C)[C@@H]1CC[C@]2(C(=O)O)CC[C@]3(C)C(CCC4[C@@]5(C)C(C(=O)O)C(=O)C(C)(C)C5CC[C@]43C)C12 (stereo partly shown) [Compound 6, 3-oxo-ceanothic acid]
- IC50 [1]: 172 ± 1.2 nM
- IC50 (AChE from human blood): 199 ± 9 nM
- IC50 [2]: > 500000 nM
- Ki (AChE [3]): 47 nM
- Inhibition Type (AChE [3]): mixed competitive mode inhibition
- inhibition at 0.75 µM (PAS of EeAChE): 24.3 ± 0.7%
- inhibition at 1.5 µM (PAS of EeAChE; 1.5 µM compound, EeAChE): 40.5 ± 1.5%

SMILES: COc1cc2nc3occc3c(OC)c2cc1OC [kokusaginine]
- IC50 (AChE [4]; [5]): 46000 nM

SMILES: C=C(C)[C@@H]1CC[C@]2(C(=O)O)CC[C@]3(C)C(CCC4[C@@]5(C)C(C=O)C(O)C(C)(C)C5CC[C@]43C)C12 (stereo partly shown) [Compound 2, Zizyberanalic acid]
- IC50 [1]: 150 ± 0.9 nM
- IC50 (AChE from human blood): 173 ± 6 nM
- IC50 [2]: > 500000 nM
- Ki (AChE [3]): 28 nM
- Inhibition Type (AChE [3]): mixed competitive mode inhibition
- inhibition at 1.5 µM (PAS of EeAChE): 23.2 ± 0.8%

SMILES: C=C(C)[C@@H]1CC[C@]2(C(=O)O)CC[C@]3(C)C(CCC4[C@@]5(C)C(C=O)=CC(C)(C)C5CC[C@]43C)C12 (stereo partly shown) [Compound 1, Zizyberenalic acid]
- IC50 [1]: 184 ± 0.7 nM
- IC50 (AChE from human blood): 215 ± 5 nM
- IC50 [2]: > 500000 nM
- Ki (AChE [3]): 46 nM
- Inhibition Type (AChE [3]): mixed competitive mode inhibition
- inhibition at 0.75 µM (PAS of EeAChE): 19.7 ± 0.8%
- inhibition at 1.5 µM (PAS of EeAChE; 1.5 µM compound, EeAChE): 26.3 ± 1.3%

SMILES: CCCc1cc(=O)c2ccccc2n1C [leptomerine]
- IC50 (AChE [4]; [5]): 2500 nM
